The source of these data is patent US8309546B2, “Morpholinopurine derivatives” (Daiichi Sankyo Company, Limited, priority 2008, dated 2012).

The structures appear in SMILES notation. “And” between values parts separate entries of the source, which are not always exact repeats. Equal entries are not always repeated. Where only a bound is given, the exact number is not on record here.

One assay concerns the target PI3Kα (Homo sapiens, UniProt P42336). In words: PI3K kinase activity inhibition assay. It counts as biochemical. The note with it: Kinase-Glo Plus ATP detection, read-out: IC50 against PI3K. On the procedure: PI3Kα kinase activity was determined in the presence and absence of a test compound. The test compound was dissolved in DMSO and diluted serially with an ATP solution (30 μm ATP, 50 mM HEPES, pH 7.4, 50 mM NaCl, 0.05% CHAPS, 10 mM MgCl2, and 5 mM dithiothreitol [DTT]). First, 7 μl each of the serially diluted test compound solutions was added to each well of a black 384-well plate. Subsequently, 7 μl of a phosphatidylinositol 4,5-bisphosphate (PIP2) solution (45 μm PIP2, 50 mM HEPES, pH 7.4, 50 mM NaCl, 0.05% CHAPS, 10 mM MgCl2, and 5 mM DTT) was added to each well of the 384-well plate. Finally, 7 μl of a solution containing PI3Kα (50 nM PI3Kα, 50 mM HEPES, pH 7.4, 50 mM NaCl, 0.05% CHAPS, 10 mM MgCl2, and 5 mM DTT) was added to each well of the 384-well plate to initiate a reaction. The mixture was reacted at room temperature for 2 hours and then 21 μl of the Kinase-Glo Plusreagent (Promega) was, added to each well of the 384-well plate to terminate the reaction. After the termination of the reaction, the solution was left standing for 15 minutes and then luminescence was measured with ARVO (PerkinElmer Co., Ltd.) to detect ATP remaining in the reaction solution.
The amount of ATP consumed in the reaction was obtained for each well and used as an indicator of PI3Kαkinase activity. The PI3Kα kinase activity in wells not containing the test compound was calculated by the following formula (1). Furthermore, the PI3Kα kinase activity in wells containing the test compound was calculated by the following formula (2). The PI3Kα inhibitory activity (%) of the test compound was calculated by the following formula (3). PI3Kα kinase activity in wells not containing the test compound=B−C (1) PI3Kα kinase activity in wells containing the test compound=B−P (2) PI3Kα inhibitory activity (%) of test compound=100−100×[(B−P)/(B−C)] (3) B: Measured value in wells not containing PI3Kα or the test compound C: Measured value in wells containing PI3Kα and not containing the test compound P: Measured value in wells containing PI3Kα and the test compound
Furthermore, an optimal curve was calculated with Graph Pad Prism 4 using concentrations of the serially diluted test compound solutions and PI3Kα inhibitory activity (%) at each concentration to obtain the concentration showing 50% inhibition as the IC50 value of PI3Kα inhibitory activity.

The target of assay [1] is T1, human mTOR (His-tagged mTOR (1362C)) (Homo sapiens, UniProt P42345).
T1 construct: the 1362 to 2549 amino acid portion on the C terminus side of human mTOR; His tag (N); made in house
T1 sequence (P42345 1362-2549): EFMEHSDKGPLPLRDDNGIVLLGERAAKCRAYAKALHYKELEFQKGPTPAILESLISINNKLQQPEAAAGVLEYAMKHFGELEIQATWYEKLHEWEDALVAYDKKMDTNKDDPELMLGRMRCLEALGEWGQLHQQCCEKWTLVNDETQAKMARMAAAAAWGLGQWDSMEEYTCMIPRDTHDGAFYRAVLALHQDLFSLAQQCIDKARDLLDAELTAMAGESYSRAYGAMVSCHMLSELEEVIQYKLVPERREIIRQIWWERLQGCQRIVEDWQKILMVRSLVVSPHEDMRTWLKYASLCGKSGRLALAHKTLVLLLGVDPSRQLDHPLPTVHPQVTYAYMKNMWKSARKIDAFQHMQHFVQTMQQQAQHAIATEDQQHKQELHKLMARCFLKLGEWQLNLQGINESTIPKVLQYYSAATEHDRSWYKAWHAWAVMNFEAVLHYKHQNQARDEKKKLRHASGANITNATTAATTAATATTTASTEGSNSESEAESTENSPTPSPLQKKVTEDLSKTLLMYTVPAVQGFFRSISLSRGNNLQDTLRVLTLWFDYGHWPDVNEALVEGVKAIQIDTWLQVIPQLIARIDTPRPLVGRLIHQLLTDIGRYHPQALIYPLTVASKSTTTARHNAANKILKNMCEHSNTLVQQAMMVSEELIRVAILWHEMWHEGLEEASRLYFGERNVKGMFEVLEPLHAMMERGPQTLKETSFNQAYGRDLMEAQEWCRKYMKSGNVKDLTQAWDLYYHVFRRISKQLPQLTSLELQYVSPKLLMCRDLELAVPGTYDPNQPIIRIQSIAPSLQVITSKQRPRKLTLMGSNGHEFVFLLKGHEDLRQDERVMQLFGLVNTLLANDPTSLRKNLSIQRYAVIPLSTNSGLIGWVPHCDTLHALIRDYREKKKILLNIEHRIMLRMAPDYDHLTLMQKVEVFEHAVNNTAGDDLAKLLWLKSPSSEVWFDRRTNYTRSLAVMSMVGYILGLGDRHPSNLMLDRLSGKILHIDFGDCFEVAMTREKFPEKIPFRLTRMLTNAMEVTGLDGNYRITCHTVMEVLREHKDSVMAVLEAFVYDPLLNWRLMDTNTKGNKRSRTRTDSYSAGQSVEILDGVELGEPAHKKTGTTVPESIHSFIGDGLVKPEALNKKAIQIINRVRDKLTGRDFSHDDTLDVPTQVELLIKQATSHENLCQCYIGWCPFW
The experiment in a line: mTOR kinase activity inhibition assay. Particulars: HTRF, read-out: IC50 against mTOR. It counts as biochemical. On the procedure: The mTOR kinase activity was determined in the presence and absence of a test compound. A substrate peptide is phosphorylated by mTOR kinase activity. A complex of streptavidin-XL665 and anti-phosphorylated S6K (Thr389) antibody-anti-mouse IgG-cryptate binds to this phosphorylated peptide. At this time, irradiation of excitation light induces transfer of fluorescence resonance energy from the excited cryptate to XL665, emitting fluorescence at 665 nm. Utilizing this principle, mTOR kinase activity was detected. When the mTOR inhibitor is present, phosphorylation of a substrate peptide is inhibited, and the biding of the above-mentioned complex to the substrate peptide is inhibited.
A His tag was introduced into the N terminus end of the 1362 to 2549 amino acid portion on the C terminus side of human mTOR, and a cell line was prepared, so that His-tagged mTOR should be constantly expressed in a HEK293 cell. A cell lysate was prepared from this HEK293 cell which constantly expressed His-tagged mTOR (1362C), and a crude product of His-tagged mTOR (1362C) was obtained by a usual method utilizing His tag.
Subsequently, an mTOR enzyme solution was prepared which contained the above-mentioned His-tagged mTOR (1362C) enzyme and 8 μg/ml biotinylated peptide (Biotin-Ahx-[…]-amide [Sigma]), as well as 50 mM HEPES (pH 7.5), 20 mM MnCl2, 1 mg/ml BSA, a suitable amount of protease inhibitor cocktail (Complete EDTA free, Roche Ltd.), 100 ng/ml calyculin A, and 4 μg/ml cantharidin as other components.
The test compound was dissolved in dimethyl sulfoxide (DMSO) and serially diluted with 20 μm ATP solution (50 mM HEPES (pH 7.5), 20 μM ATP) to obtain concentrations required for the assay. 5 μl of this compound solution was added to each well of a 384-well small volume white plate manufactured by Greiner Bio-One Co., Ltd.
5 μl of the mTOR enzyme solution was added to the above-mentioned well containing the test compound and the resulting mixture was left standing for 3 hours room temperature to proceed an enzymatic reaction.
The same procedure was performed using a solution obtained by dissolving DMSO in 20 μM ATP solution as a positive control and a solution obtained by dissolving DMSO in 50 mM HEPES buffer (pH 7.5) as a negative control.
After the enzymatic reaction, 5 μl each of an europium solution (a solution obtained by dissolving anti-mouse IgG-cryptate [SCETI Medical Labo K.K.] and anti-phosphorylation S6K [Thr389] antibody [Cell Signaling Technology Inc.] in 50 mM HEPES [pH 7.5], 100 mM EDTA, and 1.5 mg/ml BSA) and an XL665 solution (a solution obtained by dissolving Streptavidin-XL 665 [SCETI Medical Labo K.K.] in 50 mM HEPES [pH 7.5], 100 mM EDTA, 0.8 M KF, and 1.5 mg/ml BSA) were added in this order and mixed and the resulting mixture was left standing overnight at 4° C. On the following day, the mixture was returned to room temperature and then irradiated with 337-nm excitation light and fluorescence at 620 and 665 nm was measured with RUBYstar (BMG LABTECH JAPAN Ltd.).
mTOR inhibitory activity (%) was calculated using the ratio calculated from the measured values as an indicator of enzyme activity. Here, the ratio was calculated by the following formula (1). Ratio=10,000×fluorescence at 665 nm/fluorescence at 620 nm (1)
mTOR enzyme inhibitory activity (%) was calculated by the following formula (2). mTOR enzyme inhibitory activity (%)=100×[(P−S)/(P−N)] (2) P: Ratio in positive control well N: Ratio in negative control well S: Ratio in well containing the test compound
Furthermore, an optimal curve was created using the concentrations of the serially diluted test compound solutions and mTOR enzyme inhibitory activity (%) at each concentration to obtain the concentration showing 50% inhibition as the IC50 value of mTOR enzyme inhibitory activity.
For orientation: In TR-FRET formats the signal depends on donor and acceptor labels being close together.

The subject of assay [2] is human endometrial cancer cell strain AN3CA. The experiment in a line: Cell growth inhibition test (MTT), AN3CA. It counts as cell-based. The note with it: AN3-CA, 72 h, 3 days culture, read-out: concentration exhibiting anti-cell effect (GI50). On the procedure:
(§1) After a cultured cancer cell strain was treated with a test compound for a predetermined period, a cell growth inhibition test was performed by measuring the living cell count by the 3-(4,5-dimethylthiazol-2-yl)-2,5-diphenyltetrazoliumbromide (MTT) method.
(§2) Human endometrial cancer cell strain AN3CA, human ovary cancer cell strain IGROV1, and human colon cancer cell strain HT29 were seeded in a 96-well plate at 5000, 1000, and 5000 cells, respectively, per well. On the following day of seeding, a test compound having a predetermined concentration was added and the culture was continued at 37° C. in 5% CO2 for 3 days. On the final day of culture, an MTT reaction solution was added and the resulting mixture was reacted for 4 hours to form formazan by dehydrogenases contained in living cells. Subsequently, the culture broth was removed, DMSO was added to solubilize formazan, and the amount of produced formazan was determined by measuring absorbance at 540 nm using a microplate reader.
(§3) Since correlations of the amount of produced formazan and the living cell count had been confirmed, the cell growth rate was calculated by the following formula. Cell growth rate (T/C %) after addition of test compound=100×[(B−C)/(A−C)] A: Absorbance of well not containing test compound (final culture day) B: Absorbance of well containing test compound (final culture day) C: Absorbance of well immediately before addition of test compound (following day of cell seeding)
(§4) Furthermore, the cell growth rate at each concentration of serially diluted test compound solutions was obtained, and the concentration of the test compound resulting in a 50% growth rate was obtained as the GI50 value from two concentrations including 50% therebetween and the growth rates were selected.

In assay [3] the test system is human ovary cancer cell strain IGROV1. In words: Cell growth inhibition test (MTT), IGROV1. It counts as cell-based. The note with it: IGROV-1, 72 h, IGROV1, 3 days culture, read-out: concentration exhibiting anti-cell effect (GI50). As for the experimental part: as §1, §2, §3, §4
Assay [4] relates to human colon cancer cell strain HT29. In words: Cell growth inhibition test (MTT), HT29. The note with it: HT-29, 72 h, HT29, 3 days culture, read-out: concentration exhibiting anti-cell effect (GI50). It counts as cell-based. On the procedure:
as §1, §2, §3, §4

PI3Kα, sequence (P42336 whole entry, species assumed): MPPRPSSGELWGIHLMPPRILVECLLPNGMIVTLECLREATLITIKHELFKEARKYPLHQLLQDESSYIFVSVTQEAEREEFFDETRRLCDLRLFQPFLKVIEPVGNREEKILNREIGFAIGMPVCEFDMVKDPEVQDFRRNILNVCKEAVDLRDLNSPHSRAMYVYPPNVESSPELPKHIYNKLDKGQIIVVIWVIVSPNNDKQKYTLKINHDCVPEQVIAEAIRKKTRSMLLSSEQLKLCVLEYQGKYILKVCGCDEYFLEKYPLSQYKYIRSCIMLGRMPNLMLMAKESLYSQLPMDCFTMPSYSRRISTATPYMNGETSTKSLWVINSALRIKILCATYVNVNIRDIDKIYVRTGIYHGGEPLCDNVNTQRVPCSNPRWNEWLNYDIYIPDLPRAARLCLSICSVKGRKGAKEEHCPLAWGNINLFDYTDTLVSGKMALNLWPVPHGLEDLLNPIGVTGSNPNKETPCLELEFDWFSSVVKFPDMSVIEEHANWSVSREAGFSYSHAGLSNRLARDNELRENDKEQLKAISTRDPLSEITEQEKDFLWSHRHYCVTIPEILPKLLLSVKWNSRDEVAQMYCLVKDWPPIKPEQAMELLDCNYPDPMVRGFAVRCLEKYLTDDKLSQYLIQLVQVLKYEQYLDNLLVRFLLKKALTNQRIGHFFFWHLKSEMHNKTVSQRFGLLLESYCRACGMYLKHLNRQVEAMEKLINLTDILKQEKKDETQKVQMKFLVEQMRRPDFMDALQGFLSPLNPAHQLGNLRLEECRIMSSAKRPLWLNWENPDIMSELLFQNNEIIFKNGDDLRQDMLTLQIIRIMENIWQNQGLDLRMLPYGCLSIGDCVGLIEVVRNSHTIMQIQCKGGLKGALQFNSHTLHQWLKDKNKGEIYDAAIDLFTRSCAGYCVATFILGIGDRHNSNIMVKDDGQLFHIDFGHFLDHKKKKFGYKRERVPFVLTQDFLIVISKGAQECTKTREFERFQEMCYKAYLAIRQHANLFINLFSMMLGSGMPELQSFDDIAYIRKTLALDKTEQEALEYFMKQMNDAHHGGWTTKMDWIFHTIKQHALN
PI3Kα, sequence (P27986 whole entry partner, species assumed): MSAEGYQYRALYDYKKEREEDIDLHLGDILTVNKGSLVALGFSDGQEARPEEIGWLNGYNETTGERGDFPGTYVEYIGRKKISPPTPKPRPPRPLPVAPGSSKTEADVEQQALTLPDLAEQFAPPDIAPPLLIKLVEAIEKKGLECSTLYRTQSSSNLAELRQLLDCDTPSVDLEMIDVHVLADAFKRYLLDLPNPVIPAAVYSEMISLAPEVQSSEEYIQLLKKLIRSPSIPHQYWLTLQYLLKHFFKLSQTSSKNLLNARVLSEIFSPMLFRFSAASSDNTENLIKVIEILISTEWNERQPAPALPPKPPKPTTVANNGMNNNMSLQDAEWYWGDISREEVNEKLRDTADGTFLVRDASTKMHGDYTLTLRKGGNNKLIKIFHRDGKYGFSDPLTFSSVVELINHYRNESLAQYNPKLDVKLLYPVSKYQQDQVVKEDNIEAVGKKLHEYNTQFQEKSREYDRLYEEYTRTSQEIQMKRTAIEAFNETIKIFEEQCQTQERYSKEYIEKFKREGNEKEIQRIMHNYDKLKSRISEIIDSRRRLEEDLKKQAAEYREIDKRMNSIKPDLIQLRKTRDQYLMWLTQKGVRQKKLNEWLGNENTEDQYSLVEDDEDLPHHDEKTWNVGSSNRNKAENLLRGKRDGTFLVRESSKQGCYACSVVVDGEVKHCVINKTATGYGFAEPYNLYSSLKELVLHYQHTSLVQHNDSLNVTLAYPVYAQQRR

As a reminder, the IC50 is the concentration that inhibits the measured activity by half. Consider `CC(C)Cn1c(N2C[C@H](C)NC[C@H]2C)nc2c(N3CCOCC3)nc(-c3cnc(N)nc3)nc21` (relative stereo) [Example 50, 5-[8-(trans-2,5-Dimethylpiperazin-1-yl)-9-isobutyl-6-morpholin-4-yl-9H-purin-2-yl]pyrimidin-2-amine], for which the 50% inhibitory concentration (IC50) on PI3Kα was 10 to 20 nM; in assay [1], 30 to 100 nM. For the same compound, the GI50 in assay [2], in assay [3] and in assay [4] was not above 5000 nM each time.
Turning to `CNc1ncc(-c2nc(N3CCOCC3)c3nc(N4CCN(S(C)(=O)=O)CC4)n(CC4CC4)c3n2)cn1` [Example 4, 5-{9-(Cyclopropylmethyl)-8-[4-(methylsulfonyl)piperazin-1-yl]-6-morpholin-4-yl-9H-purin-2-yl}-N-methylpyrimidin-2-amine], the IC50 is 10 to 20 nM at PI3Kα and 30 to 100 nM in assay [1]. For the same compound, the GI50 in assay [2], in assay [3] and in assay [4] was not above 5000 nM each time.
For `CS(=O)(=O)N1CCN(c2nc3c(N4CCOCC4)nc(-c4cnc(N)nc4)nc3n2CC2CCOC2)CC1` (stereo not shown) [Example 5, 5-{8-[4-(Methylsulfonyl)piperazin-1-yl]-6-morpholin-4′-yl-9-(tetrahydrofuran-3-ylmethyl)-9H-purin-2-yl}pyrimidin-2-amine], the half-maximal inhibitory concentration (IC50) was 10 to 20 nM and 20 to 50 nM on PI3Kα; 10 to 30 nM in assay [1]. For the same compound, the GI50 in assay [2], in assay [3] and in assay [4] was not above 5000 nM throughout.
In the case of `CS(=O)(=O)N1CCN(c2nc3c(N4CCOCC4)nc(-c4cnc(N)nc4C(F)(F)F)nc3n2CC2CC2)CC1` [Example 7, 5-{9-(Cyclopropylmethyl)-8-[4-(methylsulfonyl)piperazin-1-yl]-6-morpholin-4-yl-9H-purin-2-yl}-4-(trifluoromethyl)pyrimidin-2-amine], the half-inhibitory concentration (IC50) on PI3Kα is less than 10 nM; in assay [1], 100 to 500 nM. For the same compound, the GI50 in assay [2], in assay [3] and in assay [4] was not above 5000 nM throughout.
With `CC(=O)N1CCN(c2nc3c(N4CCOCC4)nc(-c4cnc(N)nc4)nc3n2CC(F)(F)F)CC1` [Example 9, 5-[8-(4-Acetylpiperazin-1-yl)-6-morpholin-4-yl-9-(2,2,2-trifluoroethyl)-9H-purin-2-yl]pyrimidin-2-amine], the values for the IC50 (on PI3Kα; in assay [1]) were 10 to 20 nM and less than 10 nM, respectively. Besides, the GI50 in assay [2], in assay [3] and in assay [4] was not above 5000 nM in each case.
Take `CN1CCN(c2nc3c(N4CCOCC4)nc(-c4cnc(N)nc4)nc3n2CC(F)(F)F)CC1` [Example 13, 5-[8-(4-Methylpiperazin-1-yl)-6-morpholin-4-yl-9-(2,2,2-trifluoroethyl)-9H-purin-2-yl]pyrimidin-2-amine]: the half-maximal inhibitory concentration (IC50) on PI3Kα was less than 10 nM; in assay [1], 10 to 30 nM. Further, the GI50 in assay [2], in assay [3] and in assay [4] was not above 5000 nM in each case.
Regarding `Cc1nc(N)ncc1-c1nc(N2CCOCC2)c2nc(N3C[C@@H](C)N[C@@H](C)C3)n(CC3CC3)c2n1` [Example 15, 5-[9-(Cyclopropylmethyl)-8-(cis-3,5-dimethylpiperazin-1-yl)-6-morpholin-4-yl-9H-purin-2-yl]-4-methylpyrimidin-2-amine], the half-inhibitory concentration (IC50) lay in the range of 20 to 50 nM at PI3Kα and 100 to 500 nM in assay [1]. In addition, the GI50 in assay [2], in assay [3] and in assay [4] was not above 5000 nM throughout.
For `Cc1nc(N(C)C)ncc1-c1nc(N2CCOCC2)c2nc(N3CCN(S(C)(=O)=O)CC3)n(CC3CC3)c2n1` [Example 44, 5-{9-(Cyclopropylmethyl)-8-[4-(methylsulfonyl)piperazin-1-yl]-6-morpholin-4-yl-9H-purin-2-yl}-N,N,4-trimethylpyrimidin-2-amine], in assay [1], the IC50 was not below 500 nM.
As to `Cc1nc(N)ncc1-c1nc(N2CCOCC2)c2nc(N3CCC(C(N)=O)CC3)n(CC3CC3)c2n1` [Example 47, 1-[2-(2-Amino-4-methylpyrimidin-5-yl)-9-(cyclopropylmethyl)-6-morpholin-4-yl-9H-purin-8-yl]piperidine-4-carboxamide methanesulfonate], the IC50 at PI3Kα lay in the range of 10 to 20 nM.
